Source: paper PMC12028158, “Synthesis and In Vitro Evaluation of the Anticancer Effect of Novel Phosphonium Vindoline Derivatives” (International Journal of Molecular Sciences, 2025)

Tests used:
Format in all cases: cell-based
HT29 [1] = experiment: NCI60 one-dose screen; settings: Homo sapiens, HT-29; HT29, 10 μM, one-dose; read-out: Growth percent
M14 [2] = experiment: NCI60 five-dose screen; settings: Homo sapiens; M14, Melanoma, five-dose; read-out: GI50
A549/ATCC = experiment: NCI60 five-dose screen; settings: Homo sapiens; A549/ATCC, Non-small Cell Lung Cancer, five-dose; read-out: GI50
HCT-116 = experiment: NCI60 five-dose screen; settings: Homo sapiens; HCT-116, Colon Cancer, five-dose; read-out: GI50
Colon Cancer panel = experiment: NCI60 five-dose screen, panel mean; settings: Homo sapiens; mean over Colon Cancer panel; read-out: Mean GI50
CAKI-1 = experiment: NCI60 one-dose screen; settings: Homo sapiens; CAKI-1, 10 μM, one-dose; read-out: Growth percent
MDA-MB-468 = experiment: NCI60 one-dose screen; settings: Homo sapiens; MDA-MB-468, 10 μM, one-dose; read-out: Growth percent
A498 = experiment: NCI60 five-dose screen; settings: Homo sapiens; A498, Renal Cancer, five-dose; read-out: GI50
MDA-MB-435 = experiment: NCI60 five-dose screen; settings: Homo sapiens; MDA-MB-435, Melanoma, five-dose; read-out: GI50
UACC-257 = experiment: NCI60 five-dose screen; settings: Homo sapiens, UACC-257, UACC-257, Melanoma, five-dose; read-out: GI50
SK-MEL-5 = experiment: NCI60 five-dose screen; settings: Homo sapiens; SK-MEL-5, Melanoma, five-dose; read-out: GI50
OVCAR-3 = experiment: NCI60 five-dose screen; settings: Homo sapiens; OVCAR-3, Ovarian Cancer, five-dose; read-out: GI50
OVCAR-4 = experiment: NCI60 five-dose screen; settings: Homo sapiens; OVCAR-4, Ovarian Cancer, five-dose; read-out: GI50
OVCAR-8 [3] = experiment: NCI60 five-dose screen; settings: Homo sapiens; OVCAR-8, Ovarian Cancer, five-dose; read-out: GI50
HCT-15 [4] = experiment: NCI60 five-dose screen; settings: Homo sapiens; HCT-15, Colon Cancer, five-dose; read-out: GI50
M14 [5] = experiment: NCI60 one-dose screen; settings: Homo sapiens; M14, 10 μM, one-dose; read-out: Growth percent
SW-620 = experiment: NCI60 one-dose screen; settings: Homo sapiens; SW-620, 10 μM, one-dose; read-out: Growth percent
Ovarian Cancer panel = experiment: NCI60 five-dose screen, panel mean; settings: Homo sapiens; mean over Ovarian Cancer panel; read-out: Mean GI50
Renal Cancer panel = experiment: NCI60 five-dose screen, panel mean; settings: Homo sapiens; mean over Renal Cancer panel; read-out: Mean GI50
CNS Cancer panel = experiment: NCI60 five-dose screen, panel mean; settings: Homo sapiens; mean over CNS Cancer panel; read-out: Mean GI50
TK-10 = experiment: NCI60 one-dose screen; settings: Homo sapiens; TK-10, 10 μM, one-dose; read-out: Growth percent
786-0 = experiment: NCI60 five-dose screen; settings: Homo sapiens; 786-0, Renal Cancer, five-dose; read-out: GI50
SF-295 [6] = experiment: NCI60 one-dose screen; settings: Homo sapiens; SF-295, 10 μM, one-dose; read-out: Growth percent
SNB-19 = experiment: NCI60 five-dose screen; settings: Homo sapiens, SNB-19, SNB-19, CNS Cancer, five-dose; read-out: GI50
UACC-62 = experiment: NCI60 five-dose screen; settings: Homo sapiens; UACC-62, Melanoma, five-dose; read-out: GI50
COLO 205 = experiment: NCI60 one-dose screen; settings: Homo sapiens; COLO 205, 10 μM, one-dose; read-out: Growth percent
SK-MEL-28 = experiment: NCI60 five-dose screen; settings: Homo sapiens; SK-MEL-28, Melanoma, five-dose; read-out: GI50
MOLT-4 [7] = experiment: NCI60 one-dose screen; settings: Homo sapiens; MOLT-4, 10 μM, one-dose; read-out: Growth percent
[8] = system: Non-small Cell Lung Cancer panel; experiment: NCI60 five-dose screen, panel mean; settings: Homo sapiens; mean over Non-small Cell Lung Cancer panel; read-out: Mean GI50
NCI-H23 = experiment: NCI60 one-dose screen; settings: Homo sapiens; NCI-H23, 10 μM, one-dose; read-out: Growth percent
BT-549 [9] = experiment: NCI60 one-dose screen; settings: Homo sapiens; BT-549, 10 μM, one-dose; read-out: Growth percent
KM12 = experiment: NCI60 one-dose screen; settings: Homo sapiens; KM12, 10 μM, one-dose; read-out: Growth percent
SF-268 = experiment: NCI60 one-dose screen; settings: Homo sapiens; SF-268, 10 μM, one-dose; read-out: Growth percent
NCI-H226 [10] = experiment: NCI60 five-dose screen; settings: Homo sapiens; NCI-H226, Non-small Cell Lung Cancer, five-dose; read-out: GI50
SK-OV-3 = experiment: NCI60 five-dose screen; settings: Homo sapiens; SK-OV-3, Ovarian Cancer, five-dose; read-out: GI50
SF-295 [11] = experiment: NCI60 five-dose screen; settings: Homo sapiens; SF-295, CNS Cancer, five-dose; read-out: GI50
NCI-H226 [12] = experiment: NCI60 one-dose screen; settings: Homo sapiens; NCI-H226, 10 μM, one-dose; read-out: Growth percent
HCC-2998 = experiment: NCI60 one-dose screen; settings: Homo sapiens; HCC-2998, 10 μM, one-dose; read-out: Growth percent
HCT-15 [13] = experiment: NCI60 one-dose screen; settings: Homo sapiens; HCT-15, 10 μM, one-dose; read-out: Growth percent
HT29 [14] = experiment: NCI60 five-dose screen; settings: Homo sapiens, HT-29; HT29, Colon Cancer, five-dose; read-out: GI50
MOLT-4 [15] = experiment: NCI60 five-dose screen; settings: Homo sapiens; MOLT-4, Leukemia, five-dose; read-out: GI50
SN12C = experiment: NCI60 five-dose screen; settings: Homo sapiens, Renal Cancer, five-dose, read-out: GI50
MCF7 = experiment: NCI60 five-dose screen; settings: Homo sapiens, MCF7, MCF7, Breast Cancer, five-dose; read-out: GI50
BT-549 [16] = experiment: NCI60 five-dose screen; settings: Homo sapiens; BT-549, Breast Cancer, five-dose; read-out: GI50
PC-3 = experiment: NCI60 one-dose screen; settings: Homo sapiens; PC-3, 10 μM, one-dose; read-out: Growth percent
OVCAR-8 [17] = experiment: NCI60 one-dose screen; settings: Homo sapiens; OVCAR-8, 10 μM, one-dose; read-out: Growth percent
RXF 393 = experiment: NCI60 one-dose screen; settings: Homo sapiens; RXF 393, 10 μM, one-dose; read-out: Growth percent

CC[C@]12C=CCN3CC[C@@]4(c5ccc(OC)cc5N(C)[C@H]4[C@@](O)(C(=O)OC)[C@@H]1OC(=O)CCC[P+](c1ccc(OC)cc1)(c1ccc(OC)cc1)c1ccc(OC)cc1)[C@@H]32 [9b]
activity at 10 µM (HT29 [1]): -84.3%
GI50 (M14 [2]): 1.12 µM
GI50 (A549/ATCC): 0.731 µM
GI50 (HCT-116): 0.712 µM
GI50 (Colon Cancer panel): 0.98 µM
activity at 10 µM (CAKI-1): -93.3%
activity at 10 µM (MDA-MB-468): -92.1%
GI50 (A498): 2.34 µM
GI50 (MDA-MB-435): 0.48 µM
GI50 (UACC-257): 0.646 µM
GI50 (SK-MEL-5): 1.55 µM
GI50 (OVCAR-3): 0.624 µM
GI50 (OVCAR-4): 0.76 µM
GI50 (OVCAR-8 [3]): 1.41 µM
GI50 (HCT-15 [4]): 3.64 µM
activity at 10 µM (M14 [5]): -88.4%
activity at 10 µM (SW-620): -82.4%
GI50 (Ovarian Cancer panel): 3.46 µM
GI50 (Renal Cancer panel): 3.01 µM
GI50 (CNS Cancer panel): 1.02 µM
activity at 10 µM (TK-10): -90.7%
GI50 (786-0): 1.93 µM
activity at 10 µM (SF-295 [6]): -93.7%
GI50 (SNB-19): 0.391 µM
GI50 (UACC-62): 0.603 µM
activity at 10 µM (COLO 205): -64.4%
GI50 (SK-MEL-28): 0.453 µM
activity at 10 µM (MOLT-4 [7]): -36.8%
GI50 [8]: 1.09 µM
activity at 10 µM (NCI-H23): -92.5%
activity at 10 µM (BT-549 [9]): -96.6%
activity at 10 µM (KM12): -65.3%
activity at 10 µM (SF-268): -34.3%
GI50 (NCI-H226 [10]): 1.43 µM
GI50 (SK-OV-3): 1.02 µM
GI50 (SF-295 [11]): 1.92 µM
activity at 10 µM (NCI-H226 [12]): -80.3%
activity at 10 µM (HCC-2998): -89.7%
activity at 10 µM (HCT-15 [13]): -86.3%
GI50 (HT29 [14]): 0.371 µM
GI50 (MOLT-4 [15]): 0.933 µM
GI50 (SN12C): 0.672 µM
GI50 (MCF7): 0.383 µM
GI50 (BT-549 [16]): 1.05 µM
activity at 10 µM (PC-3): -78.8%
activity at 10 µM (OVCAR-8 [17]): -86.2%
activity at 10 µM (RXF 393): -92.6%
